Test system: B cell receptor-mediated activation of B cells in human blood (CD69 expression)
Assay: Inhibition of B cell activation in whole blood measured by CD69 expression
Assay type: cell-based
Conditions: anti-IgM stimulation, 20 hours, CD69-positive cells that are also CD20-positive, read-out: HWB IC50
Experimental: Inhibition of B Cell Activation in Whole Blood Measured by CD69 Expression
A procedure to test the ability of Btk inhibitors to suppress B cell receptor-mediated activation of B cells in human blood is as follows:
Human whole blood (HWB) is obtained from healthy volunteers, with the following restrictions: 24 hr drug-free, non-smokers. Blood is collected by venipuncture into Vacutainer tubes anticoagulated with sodium heparin. Test compounds are diluted to ten times the desired starting drug concentration in PBS […], followed by three-fold serial dilutions in 10% DMSO in PBS to produce a nine point dose-response curve. […] HWB (100 μl) is added to each well, and after mixing the plates are incubated at 37 C, 5% CO2, 100% humidity for 30 minutes.
Included are induced control, unstained and single stains for compensation adjustments and initial voltage settings. […] Supernatants are removed via suction and the remaining pellets are lysed again with another 1 ml of 1× Pharmingen Lyse Buffer, and plates are spun down as before. Supernatants are aspirated and remaining pellets are washed in FACs buffer (PBS+1% FBS). […] Samples are transferred to a 96 well plate suitable to be run on the HTS 96 well system on the BD LSR II flow cytometer.
Using appropriate excitation and emission wavelengths for the fluorophores used, data are acquired and percent positive cell values are obtained using Cell Quest Software. Results are initially analyzed by FACS analysis software (Flow Jo).

Row | Compound | IC50 [µM]
1 | CN1CCn2nc(Nc3cc(-c4ccnc(-n5ccc6cc(C(C)(C)C)cc(F)c6c5=O)c4CO)nn(C)c3=O)cc2C1 [Compound I-23, 6-tert-Butyl-8-fluoro-2-{3-hydroxymethyl-4-[1-methyl-5-(5-methyl-4,5,6,7-tetrahydro-pyrazolo[1,5-a]pyrazin-2-ylamino)-6-oxo-1,6-dihydro-pyridazin-3-yl]-pyridin-2-yl}-2H-isoquinolin-1-one] | 0.015
2 | Cn1nc(-c2ccnc(-n3ccc4cc(C(C)(C)C)cc(F)c4c3=O)c2CO)cc(Nc2cc3n(n2)CCN(C2COC2)C3)c1=O [Compound I-24, 6-tert-Butyl-8-fluoro-2-{3-hydroxymethyl-4-[1-methyl-5-(5-oxetan-3-yl-4,5,6,7-tetrahydro-pyrazolo[1,5-a]pyrazin-2-ylamino)-6-oxo-1,6-dihydro-pyridazin-3-yl]-pyridin-2-yl}-2H-isoquinolin-1-one] | 0.006
3 | CCN1CCn2nc(Nc3cc(-c4ccnc(-n5ccc6cc(C(C)(C)C)cc(F)c6c5=O)c4CO)nn(C)c3=O)cc2C1 [Compound I-25, 6-tert-Butyl-2-{4-[5-(5-ethyl-4,5,6,7-tetrahydro-pyrazolo[1,5-a]pyrazin-2-ylamino)-1-methyl-6-oxo-1,6-dihydro-pyridazin-3-yl]-3-hydroxymethyl-pyridin-2-yl}-8-fluoro-2H-isoquinolin-1-one] | 0.003
4 | Cn1nc(-c2ccnc(-n3ccc4cc(C(C)(C)C)cc(F)c4c3=O)c2CO)cc(Nc2ccc(OC(C)(C)CN3CC(F)(F)C3)cn2)c1=O [Compound I-27, 6-tert-Butyl-2-[4-(5-{5-[2-(3,3-difluoro-azetidin-1-yl)-1,1-dimethyl-ethoxy]-pyridin-2-ylamino}-1-methyl-6-oxo-1,6-dihydro-pyridazin-3-yl)-3-hydroxymethyl-pyridin-2-yl]-8-fluoro-2H-isoquinolin-1-one] | 0.062
5 | Cn1cc(-c2nccc(-n3ncc4cc(C(C)(C)C)cc(F)c4c3=O)c2CO)cc(Nc2ccc(C(=O)N3CCOCC3)cn2)c1=O [Compound I-28, 4-(6-tert-Butyl-8-fluoro-1-oxo-1H-phthalazin-2-yl)-3-hydroxymethyl-1′-methyl-5′-[5-(morpholine-4-carbonyl)-pyridin-2-ylamino]-1′H-[2,3′]bipyridinyl-6′-one] | 0.074
6 | Cn1cc(-c2nccc(-n3ncc4cc(C(C)(C)C)cc(F)c4c3=O)c2CO)cc(Nc2ccc(S(C)(=O)=O)cn2)c1=O [Compound I-29, 4-(6-tert-Butyl-8-fluoro-1-oxo-1H-phthalazin-2-yl)-3-hydroxymethyl-5′-(5-methanesulfonyl-pyridin-2-ylamino)-1′-methyl-1′H-[2,3′]bipyridinyl-6′-one] | 0.162
7 | Cn1nc(-c2ccnc(-n3ncc4cc(C(C)(C)C)cc(F)c4c3=O)c2CO)cc(Nc2ccc(OC(C)(C)CN3CC(F)(F)C3)cn2)c1=O [Compound I-30, 6-tert-Butyl-2-[4-(5-{5-[2-(3,3-difluoro-azetidin-1-yl)-1,1-dimethyl-ethoxy]-pyridin-2-ylamino}-1-methyl-6-oxo-1,6-dihydro-pyridazin-3-yl)-3-hydroxymethyl-pyridin-2-yl]-8-fluoro-2H-phthalazin-1-one] | 0.055
8 | CN1CCn2nc(Nc3cc(-c4ccnc(-n5ccc6cc(C(C)(C)C#N)cc(F)c6c5=O)c4CO)nn(C)c3=O)cc2C1 [Compound I-31, 2-(8-Fluoro-2-{3-hydroxymethyl-4-[1-methyl-5-(5-methyl-4,5,6,7-tetrahydro-pyrazolo[1,5-a]pyrazin-2-ylamino)-6-oxo-1,6-dihydro-pyridazin-3-yl]-pyridin-2-yl}-1-oxo-1,2-dihydro-isoquinolin-6-yl)-2-methyl-propionitrile] | 0.036
9 | Cn1nc(-c2ccnc(-n3ccc4cc(C(C)(C)C#N)cc(F)c4c3=O)c2CO)cc(Nc2ccc(OC(C)(C)CN3CC(F)(F)C3)cn2)c1=O [Compound I-32, 2-{2-[4-(5-{5-[2-(3,3-Difluoro-azetidin-1-yl)-1,1-dimethyl-ethoxy]-pyridin-2-ylamino}-1-methyl-6-oxo-1,6-dihydro-pyridazin-3-yl)-3-hydroxymethyl-pyridin-2-yl]-8-fluoro-1-oxo-1,2-dihydro-isoquinolin-6-yl}-2-methyl-propionitrile] | 0.106
10 | Cn1nc(-c2ccnc(-n3ncc4cc(C(C)(C)C)ccc4c3=O)c2CO)cc(Nc2ccc(OC(C)(C)CN3CC(F)(F)C3)cn2)c1=O [Compound I-33, 6-tert-Butyl-2-[4-(5-{5-[2-(3,3-difluoro-azetidin-1-yl)-1,1-dimethyl-ethoxy]-pyridin-2-ylamino}-1-methyl-6-oxo-1,6-dihydro-pyridazin-3-yl)-3-hydroxymethyl-pyridin-2-yl]-2H-phthalazin-1-one] | 0.212
11 | Cn1nc(-c2ccnc(-n3ncc4cc(C(C)(C)C)cc(F)c4c3=O)c2CO)cc(Nc2cc3n(n2)CC[N+](C)([O-])C3)c1=O (centres unmarked) [Compound I-34, 6-tert-Butyl-8-fluoro-2-{3-hydroxymethyl-4-[1-methyl-5-(5-methyl-5-oxy-4,5,6,7-tetrahydro-pyrazolo[1,5-a]pyrazin-2-ylamino)-6-oxo-1,6-dihydro-pyridazin-3-yl]-pyridin-2-yl}-2H-phthalazin-1-one] | 3.5

Source: US8889682B2, “Inhibitors of bruton'S tyrosine kinase” (Hoffmann-La Roche Inc., priority 2011, dated 2014)
